From patent publication US11160790B2, “Method of inhibiting Cryptococcus growth using eltrombopag” (priority 2019, dated 2021)
Converted amounts (≈) assume the structure as drawn.

Legend:
[1] = system: Aspergillus fumigatus AF293; experiment: Microdilution assay (CLSI M27-A3/M38-A2), MIC and MFC; type: cell-based
Protocol: (§1) Cryptococcus and Candida species were cultured in yeast extract-peptone-dextrose (YPD) medium (containing 1% yeast extract, 2% peptone, 2% glucose, and optionally 2% agar for preparation of an agar plate). Aspergillus, Fusarium, and Trichophyton species were cultured on potato dextrose agar (PDA) plate (containing 2% potato infusion, […], and 1.5% agar). A microdilution assay was performed to determine minimum inhibitory concentration (MIC), minimum fungicidal concentration (MFC), and fractional inhibitory concentration (FIC) index (FICI) using RPMI 1640 medium buffered with MOPS. Minimal medium (containing 15 mM glucose, 10 mM magnesium sulfate, 29.4 mM potassium dihydrogen phosphate, 13 mM glycine, and 3 μM thiamine hydrochloride; pH 5.5) was used for capsule size assay and melanization assay.
(§2) To investigate the inhibitory effects of eltrombopag on the growth of fungi, microdilution assays (based on the CLSI standards M27-A3 and M38-A2) were performed with multiple pathogenic yeasts and filamentous fungi including Cryptococcus, Candida, Aspergillus, Fusarium, and Trichophyton (TABLE 1). Briefly, yeast or filamentous fungi strains at a final concentration of about 10^3 cfu/mL were inoculated in RPMI 1640 medium containing two-fold serially diluted eltrombopag (started at 64 mg/L). In addition, fungal cultures without eltrombopag were used as positive controls, while media without fungal cells and eltrombopag were used as negative controls. The 96-well plates loaded with the aforementioned cultures were incubated at 35° C. for 48 hours, and the growth of cells in each well was examined to determine the minimum inhibitory concentration (MIC) of eltrombopag, which was the lowest drug concentration at which there was no visible cell growth. Thereafter, 3 μL of the fungal culture from each well of the 96-well plates was spotted onto eltrombopag-free YPD (for yeasts) or PDA (for filamentous fungi) agar plates, which were then incubated at 35° C. for 48 hours to examine colony formation Minimum fungicidal concentration (MFC) was determined to be the lowest drug concentration at which no colonies formed. The assays were performed in triplicate.

Candida albicans SC5314 = experiment: as above; type: cell-based; details: 35° C.
Protocol: as §1, §2

Candida glabrata CBS138 = experiment: as above; type: cell-based; details: Nakaseomyces glabratus, 35° C.
Protocol: as §1, §2

Candida krusei ATCC6258 = experiment: as above; type: cell-based; details: Pichia kudriavzevii, 35° C.
Protocol: as §1, §2

[2] = system: Candida lusitaniae ATCC42720; experiment: as above; type: cell-based; details: Clavispora lusitaniae, 35° C.
Protocol: as §1, §2

[3] = system: Candida parapsilosis ATCC22019; experiment: as above; type: cell-based; details: Lodderomyces parapsilosis, 35° C.
Protocol: as §1, §2

[4] = system: Candida tropicalis MYA3404; experiment: as above; type: cell-based; details: 35° C.
Protocol: as §1, §2

[5] = system: Cryptococcus deuterogattii R265; experiment: as above; type: cell-based; details: 35° C.
Protocol: as §1, §2

[6] = system: Cryptococcus deuterogattii R272; experiment: as above; type: cell-based; details: 35° C.
Protocol: as §1, §2

[7] = system: Cryptococcus gattii WM276; experiment: as above; type: cell-based; details: 35° C.
Protocol: as §1, §2

[8] = system: Cryptococcus neoformans 89-610; experiment: as above; type: cell-based; details: 35° C.
Protocol: as §1, §2

[9] = system: Cryptococcus neoformans H99; experiment: as above; type: cell-based; details: 35° C.
Protocol: as §1, §2

[10] = system: Cryptococcus neoformans T1; experiment: as above; type: cell-based
Protocol: as §1, §2

[11] = system: Fusarium solani Fungus III-6; experiment: as above; type: cell-based
Protocol: as §1, §2

[12] = system: Trichophyton rubrum MYA4438; experiment: as above; type: cell-based
Protocol: as §1, §2

most Candida species = experiment: Microdilution assay, summary for Candida species; type: cell-based
Protocol: as §1, with “Minimal medium (containing 15 mM glucose, 10 mM magnesium sulfate, 29.4 mM potassium dihydrogen phosphate, 13 mM glycine, and 3 μM thiamine hydrochloride; pH 5.5) was used for capsule size assay and melanization assay.” left out
To investigate the inhibitory effects of eltrombopag on the growth of fungi, microdilution assays (based on the CLSI standards M27-A3 and M38-A2) were performed with multiple pathogenic yeasts and filamentous fungi including Cryptococcus, Candida, Aspergillus, Fusarium, and Trichophyton (TABLE 1). […] Thereafter, 3 μL of the fungal culture from each well of the 96-well plates was spotted onto eltrombopag-free YPD (for yeasts) or PDA (for filamentous fungi) agar plates, which were then incubated at 35° C. for 48 hours to examine colony formation Minimum fungicidal concentration (MFC) was determined to be the lowest drug concentration at which no colonies formed. […]

C. neoformans H99 = experiment: Checkerboard titration assay; type: cell-based, Cryptococcus neoformans; details: 30° C., 48 hours
Protocol: (§3) Amphotericin B plus 5-flucytosine or fluconazole are combinations often used to treat cryptococcal meningitis. To investigate the synergy between eltrombopag and existing antifungal drugs or other drugs, a checkerboard titration assay was performed on Cryptococcus. Briefly, C. neoformans […] and C. deuterogattii […] cells were cultured overnight at 30° C. and then washed twice with double-distilled water. The cells were diluted to 10^3 cfu/mL with RPMI 1640 medium, and 100 μL of the cell suspension was added to each well of a 96-well polystyrene plate. […] After incubation at 30° C. for 48 hours, the growth of cells under different treatments was assessed by measuring the light absorbance at 600 nm (OD600). This assay allows the determination of fractional inhibitory concentration index (FICI): (MICcombined of drug A/MICalone of drug A)+(MICcombined of drug B/MICalone of drug B). After the checkerboard titration assay, the cells (3 μL) in the 96-well plate were transferred to drug-free YPD agar plates. After incubation at 30° C. for 48 hours, the agar plates were photographed and assessed for cell viability.

C. deuterogattii R265 = experiment: Checkerboard titration assay; type: cell-based, Cryptococcus deuterogattii; details: 30° C., 48 hours
Protocol: as §3

**Q.** What does the source list for `CC1=NN(c2ccc(C)c(C)c2)C(=O)/C1=N\Nc1cccc(-c2cccc(C(=O)O)c2)c1O` [eltrombopag]?
**A.** antifungal activity [1]: no antifungal activity; MIC ([1]; Aspergillus fumigatus, AF293, 35° C., 48 hours): > 64 µg/mL; MFC ([1]; Aspergillus fumigatus, AF293, 35° C., 48 hours on drug-free agar): > 64 µg/mL; MIC (Candida albicans SC5314; 48 hours): > 64 µg/mL; MFC (Candida albicans SC5314; 48 hours on drug-free agar): > 64 µg/mL; MIC (Candida glabrata CBS138; CBS138, 48 h, 48 hours): ~0.25 µg/mL (≈ 0.565 µM); MFC (Candida glabrata CBS138; CBS138, 48 hours on drug-free agar): > 64 µg/mL; MIC (Candida krusei ATCC6258; 48 hours): 64 µg/mL (≈ 145 µM); MFC (Candida krusei ATCC6258; 48 hours on drug-free agar): > 64 µg/mL; MIC ([2]; 48 hours): 64 µg/mL (≈ 145 µM); MFC ([2]; 48 hours on drug-free agar): > 64 µg/mL; MIC ([3]; 48 hours): 64 µg/mL (≈ 145 µM); MFC ([3]; 48 hours on drug-free agar): > 64 µg/mL; MIC ([4]; 48 hours): 64 µg/mL (≈ 145 µM); MFC ([4]; 48 hours on drug-free agar): > 64 µg/mL; MIC ([5]; 48 hours): 0.125 µg/mL (≈ 0.283 µM); MFC ([5]; 48 hours on drug-free agar): > 64 µg/mL; MIC ([6]; 48 hours): 0.125 µg/mL (≈ 0.283 µM); MFC ([6]; 48 hours on drug-free agar): > 64 µg/mL; MIC ([7]; 48 hours): 0.125 µg/mL (≈ 0.283 µM); MFC ([7]; 48 hours on drug-free agar): > 64 µg/mL; MIC ([8]; Cryptococcus neoformans, 89610, 48 h, 48 hours, azole-resistant strain): 0.125 µg/mL (≈ 0.283 µM); MFC ([8]; Cryptococcus neoformans, 89610, 48 hours on drug-free agar): > 64 µg/mL; MIC ([9]; 48 hours): 0.125 µg/mL (≈ 0.283 µM); MFC ([9]; 48 hours on drug-free agar): > 64 µg/mL; MFC ([10]; T1, 35° C., 48 hours on drug-free agar): > 64 µg/mL; MIC ([10]; T1, 48 h, 35° C., 48 hours, azole-resistant strain): 0.125 µg/mL (≈ 0.283 µM); antifungal activity [11]: no antifungal activity; MIC ([11]; Fusarium solani, 35° C., 48 hours): > 64 µg/mL; MFC ([11]; Fusarium solani, 35° C., 48 hours on drug-free agar): > 64 µg/mL; MFC ([12]; MYA4438, 35° C., 48 hours on drug-free agar): > 64 µg/mL; MIC ([12]; MYA4438, 48 h, 35° C., 48 hours): ~0.5 µg/mL (≈ 1.13 µM); MIC (most Candida species): ≥ 64 mg/1; MICalone (C. neoformans H99): 0.25 mg/L; MICcombined of ETP (C. neoformans H99; ETP in combination with AMB): 0.03 mg/L; MICcombined of ETP (C. neoformans H99; ETP in combination with CsA): 0.25 mg/L; MICcombined of ETP (C. neoformans H99; ETP in combination with FK506): 0.015 mg/L; MICcombined of ETP (C. neoformans H99; ETP in combination with FLC): 0.03 mg/L; MICalone (C. deuterogattii R265): 0.5 mg/L; MICcombined of ETP (C. deuterogattii R265; ETP in combination with AMB): 0.03 mg/L; MICcombined of ETP (C. deuterogattii R265; ETP in combination with CsA): 1 mg/L; MICcombined of ETP (C. deuterogattii R265; ETP in combination with FK506): 0.015 mg/L; MICcombined of ETP (C. deuterogattii R265; ETP in combination with FLC): 0.03 mg/L
